Experimental data published in article PMC6278935 (Pharmacogenetics and genomics, 2012).
Numbering of substitutions follows the chain as printed. Names may count otherwise. “And” between values parts separate entries of the source, which are not always exact repeats. Equal values may be shown once. “Also recorded” adds a separate entry of the source. Marks after values point to notes of the source that are not given here.

Tests used:
UGT2B4 = UGT2B4 (Homo sapiens, UniProt P06133); test: Glucuronidation screen, UGT2B4-over-expressing cell homogenate; type: in vitro ADME; settings: 160 μM CLZ or 320 μM dmCLZ; up to 1 mg cell homogenate
Sequence of UGT2B4 (P06133 24-528): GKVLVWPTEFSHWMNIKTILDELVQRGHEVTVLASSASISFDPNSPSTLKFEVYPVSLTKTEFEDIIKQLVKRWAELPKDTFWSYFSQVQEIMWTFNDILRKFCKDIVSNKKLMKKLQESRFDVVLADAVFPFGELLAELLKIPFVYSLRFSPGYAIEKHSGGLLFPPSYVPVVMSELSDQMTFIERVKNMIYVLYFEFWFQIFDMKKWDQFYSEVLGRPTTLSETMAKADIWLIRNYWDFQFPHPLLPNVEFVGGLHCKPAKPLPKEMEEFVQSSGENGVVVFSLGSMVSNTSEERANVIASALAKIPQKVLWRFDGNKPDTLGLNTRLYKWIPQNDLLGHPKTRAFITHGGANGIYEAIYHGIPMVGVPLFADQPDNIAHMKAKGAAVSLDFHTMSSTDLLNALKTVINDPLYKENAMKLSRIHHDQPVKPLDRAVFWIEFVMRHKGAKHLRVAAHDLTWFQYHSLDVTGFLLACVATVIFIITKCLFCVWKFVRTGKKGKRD

UGT1A7 = UGT1A7 (Homo sapiens, UniProt Q9HAW7); test: Glucuronidation screen, UGT1A7-over-expressing cell homogenate; type: in vitro ADME; settings: 160 μM CLZ or 320 μM dmCLZ; up to 1 mg cell homogenate
UGT1A3 = UGT1A3 (Homo sapiens, UniProt P35503); test: Glucuronidation screen, UGT1A3-over-expressing cell homogenate; type: in vitro ADME; settings: 160 μM CLZ or 320 μM dmCLZ; up to 1 mg cell homogenate; UV and MRM detection
Sequence of UGT1A3 (P35503 29-534): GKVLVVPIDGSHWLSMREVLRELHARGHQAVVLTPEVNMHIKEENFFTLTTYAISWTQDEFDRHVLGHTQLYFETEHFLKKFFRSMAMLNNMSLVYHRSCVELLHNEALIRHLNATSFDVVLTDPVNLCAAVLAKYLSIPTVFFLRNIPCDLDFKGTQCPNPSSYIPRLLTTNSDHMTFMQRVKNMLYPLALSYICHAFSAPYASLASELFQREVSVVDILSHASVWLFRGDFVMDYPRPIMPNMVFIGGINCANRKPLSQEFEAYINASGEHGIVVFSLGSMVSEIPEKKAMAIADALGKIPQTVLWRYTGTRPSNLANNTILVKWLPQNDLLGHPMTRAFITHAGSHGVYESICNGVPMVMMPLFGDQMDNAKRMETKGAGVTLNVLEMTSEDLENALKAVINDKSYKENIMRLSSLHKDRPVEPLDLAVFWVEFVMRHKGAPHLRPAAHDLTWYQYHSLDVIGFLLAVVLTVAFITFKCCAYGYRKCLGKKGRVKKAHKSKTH

UGT2B10 = UGT2B10 (Homo sapiens, UniProt P36537); test: Glucuronidation screen, UGT2B10-over-expressing cell homogenate; type: in vitro ADME; settings: 160 μM CLZ or 320 μM dmCLZ; up to 1 mg cell homogenate; UV and MRM detection
Sequence of UGT2B10 (P36537 24-528): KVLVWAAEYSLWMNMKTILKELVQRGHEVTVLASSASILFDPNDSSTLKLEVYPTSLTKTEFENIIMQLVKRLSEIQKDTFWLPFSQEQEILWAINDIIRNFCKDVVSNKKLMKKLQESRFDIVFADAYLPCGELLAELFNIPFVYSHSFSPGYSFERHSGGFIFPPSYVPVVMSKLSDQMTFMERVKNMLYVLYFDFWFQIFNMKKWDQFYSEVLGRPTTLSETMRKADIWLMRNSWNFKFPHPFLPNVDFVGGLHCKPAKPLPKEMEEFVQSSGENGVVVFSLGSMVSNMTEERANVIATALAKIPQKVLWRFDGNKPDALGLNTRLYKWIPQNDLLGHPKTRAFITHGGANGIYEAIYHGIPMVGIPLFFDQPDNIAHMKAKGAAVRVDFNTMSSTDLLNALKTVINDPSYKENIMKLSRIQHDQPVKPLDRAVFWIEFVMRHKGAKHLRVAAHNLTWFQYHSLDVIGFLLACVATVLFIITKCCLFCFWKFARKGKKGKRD

[1] = cited from earlier work
UGT1A1 = molecular target: T1, UGT1A1 (Homo sapiens, UniProt P22309); test: Glucuronidation by UGT1A1-over-expressing HEK 293 cell homogenate; settings: 160 μM CLZ or 320 μM dmCLZ; up to 1 mg cell homogenate; UV and MRM detection
T1 sequence (P22309 26-533): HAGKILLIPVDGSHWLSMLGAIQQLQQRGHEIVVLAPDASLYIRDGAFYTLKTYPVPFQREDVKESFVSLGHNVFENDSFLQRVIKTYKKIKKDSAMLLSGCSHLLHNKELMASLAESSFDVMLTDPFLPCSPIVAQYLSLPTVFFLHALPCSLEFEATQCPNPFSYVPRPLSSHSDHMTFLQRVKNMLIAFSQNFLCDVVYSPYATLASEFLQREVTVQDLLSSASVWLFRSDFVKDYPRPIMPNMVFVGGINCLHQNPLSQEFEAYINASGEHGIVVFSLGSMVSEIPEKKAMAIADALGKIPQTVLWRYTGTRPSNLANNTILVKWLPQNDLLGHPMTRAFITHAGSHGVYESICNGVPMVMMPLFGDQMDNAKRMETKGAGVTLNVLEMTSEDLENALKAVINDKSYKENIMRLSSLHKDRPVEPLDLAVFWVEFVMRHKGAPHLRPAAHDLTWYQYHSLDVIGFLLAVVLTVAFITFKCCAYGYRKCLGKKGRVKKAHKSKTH

UGT1A10 = UGT1A10 (Homo sapiens, UniProt Q9HAW8); test: Glucuronidation screen, UGT1A10-over-expressing cell homogenate; type: in vitro ADME; settings: 160 μM CLZ or 320 μM dmCLZ; up to 1 mg cell homogenate
Sequence of UGT1A10 (Q9HAW8 26-530): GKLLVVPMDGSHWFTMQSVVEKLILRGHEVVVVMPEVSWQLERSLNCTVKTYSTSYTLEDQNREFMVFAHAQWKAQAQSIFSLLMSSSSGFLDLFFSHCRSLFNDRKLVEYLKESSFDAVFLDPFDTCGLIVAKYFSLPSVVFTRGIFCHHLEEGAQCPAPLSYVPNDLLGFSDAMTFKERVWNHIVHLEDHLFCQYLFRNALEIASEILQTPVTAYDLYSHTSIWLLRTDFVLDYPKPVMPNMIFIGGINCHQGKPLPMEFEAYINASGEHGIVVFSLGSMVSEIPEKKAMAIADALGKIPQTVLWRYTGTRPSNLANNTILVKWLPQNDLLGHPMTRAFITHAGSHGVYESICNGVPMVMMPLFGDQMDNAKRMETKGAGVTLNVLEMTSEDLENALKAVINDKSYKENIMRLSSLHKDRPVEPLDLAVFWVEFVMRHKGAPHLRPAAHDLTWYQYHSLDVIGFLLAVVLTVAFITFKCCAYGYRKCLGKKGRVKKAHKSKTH

UGT1A9 = UGT1A9 (Homo sapiens, UniProt O60656); test: Glucuronidation screen, UGT1A9-over-expressing cell homogenate; type: in vitro ADME; settings: 160 μM CLZ or 320 μM dmCLZ; up to 1 mg cell homogenate
UGT2B15 = UGT2B15 (Homo sapiens, UniProt P54855); test: Glucuronidation screen, UGT2B15-over-expressing cell homogenate; type: in vitro ADME; settings: 160 μM CLZ or 320 μM dmCLZ; up to 1 mg cell homogenate
Sequence of UGT2B15 (P54855 24-530): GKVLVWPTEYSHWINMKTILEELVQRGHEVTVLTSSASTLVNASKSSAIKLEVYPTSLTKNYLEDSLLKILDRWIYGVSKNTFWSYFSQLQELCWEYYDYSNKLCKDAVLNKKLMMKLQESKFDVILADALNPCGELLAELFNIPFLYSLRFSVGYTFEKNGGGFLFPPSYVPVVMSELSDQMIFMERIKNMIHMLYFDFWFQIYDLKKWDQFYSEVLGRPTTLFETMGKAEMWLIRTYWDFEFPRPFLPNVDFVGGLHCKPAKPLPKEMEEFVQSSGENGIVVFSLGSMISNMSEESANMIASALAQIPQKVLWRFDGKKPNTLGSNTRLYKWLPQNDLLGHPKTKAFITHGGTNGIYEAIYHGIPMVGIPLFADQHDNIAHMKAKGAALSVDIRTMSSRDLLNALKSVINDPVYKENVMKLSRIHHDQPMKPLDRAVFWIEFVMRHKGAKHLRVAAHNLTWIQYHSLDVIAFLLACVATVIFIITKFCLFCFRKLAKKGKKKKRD

UGT2B7 = UGT2B7 (Homo sapiens, UniProt P16662); test: Glucuronidation screen, UGT2B7-over-expressing cell homogenate; type: in vitro ADME; settings: 160 μM CLZ or 320 μM dmCLZ; up to 1 mg cell homogenate
Sequence of UGT2B7 (P16662 24-529): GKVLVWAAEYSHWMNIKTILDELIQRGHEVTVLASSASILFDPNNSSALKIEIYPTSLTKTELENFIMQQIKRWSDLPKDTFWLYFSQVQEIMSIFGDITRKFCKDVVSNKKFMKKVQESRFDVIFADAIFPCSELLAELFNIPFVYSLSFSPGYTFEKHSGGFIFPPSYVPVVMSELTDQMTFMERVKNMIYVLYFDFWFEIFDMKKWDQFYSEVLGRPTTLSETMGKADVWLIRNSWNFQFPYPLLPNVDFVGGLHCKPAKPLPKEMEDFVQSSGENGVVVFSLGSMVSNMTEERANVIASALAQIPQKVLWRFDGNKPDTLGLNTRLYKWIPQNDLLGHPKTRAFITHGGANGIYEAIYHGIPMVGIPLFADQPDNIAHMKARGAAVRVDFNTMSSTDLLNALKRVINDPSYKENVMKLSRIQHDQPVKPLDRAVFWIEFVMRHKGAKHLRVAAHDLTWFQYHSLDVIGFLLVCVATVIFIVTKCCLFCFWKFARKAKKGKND

UGT2B17 = UGT2B17 (Homo sapiens, UniProt O75795); test: Glucuronidation screen, UGT2B17-over-expressing cell homogenate; type: in vitro ADME; settings: 160 μM CLZ or 320 μM dmCLZ; up to 1 mg cell homogenate
Sequence of UGT2B17 (O75795 24-530): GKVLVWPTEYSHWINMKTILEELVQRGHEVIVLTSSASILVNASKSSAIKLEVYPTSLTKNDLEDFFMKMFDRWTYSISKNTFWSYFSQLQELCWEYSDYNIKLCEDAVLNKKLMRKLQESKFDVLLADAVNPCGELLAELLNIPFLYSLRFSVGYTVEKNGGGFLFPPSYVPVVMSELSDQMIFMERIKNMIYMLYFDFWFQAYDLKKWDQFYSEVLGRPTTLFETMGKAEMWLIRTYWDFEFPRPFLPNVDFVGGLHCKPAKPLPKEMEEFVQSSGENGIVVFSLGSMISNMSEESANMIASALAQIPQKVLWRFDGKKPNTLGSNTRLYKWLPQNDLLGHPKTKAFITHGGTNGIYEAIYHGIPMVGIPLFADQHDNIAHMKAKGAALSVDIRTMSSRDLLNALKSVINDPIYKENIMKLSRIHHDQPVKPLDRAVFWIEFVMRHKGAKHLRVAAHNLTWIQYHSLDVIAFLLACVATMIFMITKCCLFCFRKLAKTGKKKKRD

UGT1A4^24Pro/48Val = molecular target: T2, UGT1A4^24Pro/48Val (Homo sapiens, UniProt P22310, L48V); test: Glucuronidation by UGT1A4 24Pro/48Val variant-over-expressing cell homogenate
T2 sequence (P22310 29-534 L48V): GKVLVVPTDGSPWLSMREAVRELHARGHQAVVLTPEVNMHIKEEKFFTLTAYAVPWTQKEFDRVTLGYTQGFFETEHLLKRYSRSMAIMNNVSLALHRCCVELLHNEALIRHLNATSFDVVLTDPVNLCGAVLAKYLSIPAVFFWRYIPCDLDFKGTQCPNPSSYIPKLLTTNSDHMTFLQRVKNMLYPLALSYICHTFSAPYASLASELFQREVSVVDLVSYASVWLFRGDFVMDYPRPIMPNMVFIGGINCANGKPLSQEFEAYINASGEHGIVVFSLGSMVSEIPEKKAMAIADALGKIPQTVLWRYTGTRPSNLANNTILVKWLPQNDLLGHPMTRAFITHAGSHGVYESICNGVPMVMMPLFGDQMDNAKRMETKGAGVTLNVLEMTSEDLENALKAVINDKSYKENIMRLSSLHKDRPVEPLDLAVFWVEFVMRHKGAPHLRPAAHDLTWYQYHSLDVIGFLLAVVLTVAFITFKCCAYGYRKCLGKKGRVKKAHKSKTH

UGT1A6 = UGT1A6 (Homo sapiens, UniProt P19224); test: Glucuronidation screen, UGT1A6-over-expressing cell homogenate; type: in vitro ADME; settings: 160 μM CLZ or 320 μM dmCLZ; up to 1 mg cell homogenate
Sequence of UGT1A6 (P19224 27-532): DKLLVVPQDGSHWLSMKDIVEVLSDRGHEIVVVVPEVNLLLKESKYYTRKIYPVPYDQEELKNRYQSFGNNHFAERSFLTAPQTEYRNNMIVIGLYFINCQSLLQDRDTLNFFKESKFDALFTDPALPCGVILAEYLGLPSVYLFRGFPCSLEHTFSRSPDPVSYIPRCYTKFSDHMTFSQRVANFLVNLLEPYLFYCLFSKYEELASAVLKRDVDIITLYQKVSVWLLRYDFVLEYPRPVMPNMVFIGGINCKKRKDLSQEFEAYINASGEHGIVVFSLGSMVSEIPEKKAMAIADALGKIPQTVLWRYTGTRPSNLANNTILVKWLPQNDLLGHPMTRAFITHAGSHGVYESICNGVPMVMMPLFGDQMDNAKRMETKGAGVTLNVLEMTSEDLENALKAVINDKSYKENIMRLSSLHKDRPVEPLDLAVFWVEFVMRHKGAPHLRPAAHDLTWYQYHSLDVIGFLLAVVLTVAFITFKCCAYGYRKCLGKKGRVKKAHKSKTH

UGT1A4^24Pro/48Leu = molecular target: T3, UGT1A4^24Pro/48Leu (Homo sapiens, UniProt P22310); test: Glucuronidation by wild-type UGT1A4-over-expressing HEK 293 cell homogenate; settings: 160 μM CLZ or 320 μM dmCLZ; up to 1 mg cell homogenate; UV and MRM detection
T3 sequence (P22310 29-534): T2 sequence (P22310 29-534 L48V) with V20L

UGT1A4^24Thr/48Leu = molecular target: T4, UGT1A4^24Thr/48Leu (Homo sapiens, UniProt P22310); test: Glucuronidation by UGT1A4 24Thr/48Leu variant-over-expressing cell homogenate; settings: vs wild-type UGT1A4^24Pro/48Leu
T4 sequence (P22310 29-534): T2 sequence (P22310 29-534 L48V) with V20L

UGT2B11 = UGT2B11 (Homo sapiens, UniProt O75310); test: Glucuronidation screen, UGT2B11-over-expressing cell homogenate; type: in vitro ADME; settings: 160 μM CLZ or 320 μM dmCLZ; up to 1 mg cell homogenate
UGT1A8 = UGT1A8 (Homo sapiens, UniProt Q9HAW9); test: Glucuronidation screen, UGT1A8-over-expressing cell homogenate; type: in vitro ADME; settings: 160 μM CLZ or 320 μM dmCLZ; up to 1 mg cell homogenate
Sequence of UGT1A8 (Q9HAW9 26-530): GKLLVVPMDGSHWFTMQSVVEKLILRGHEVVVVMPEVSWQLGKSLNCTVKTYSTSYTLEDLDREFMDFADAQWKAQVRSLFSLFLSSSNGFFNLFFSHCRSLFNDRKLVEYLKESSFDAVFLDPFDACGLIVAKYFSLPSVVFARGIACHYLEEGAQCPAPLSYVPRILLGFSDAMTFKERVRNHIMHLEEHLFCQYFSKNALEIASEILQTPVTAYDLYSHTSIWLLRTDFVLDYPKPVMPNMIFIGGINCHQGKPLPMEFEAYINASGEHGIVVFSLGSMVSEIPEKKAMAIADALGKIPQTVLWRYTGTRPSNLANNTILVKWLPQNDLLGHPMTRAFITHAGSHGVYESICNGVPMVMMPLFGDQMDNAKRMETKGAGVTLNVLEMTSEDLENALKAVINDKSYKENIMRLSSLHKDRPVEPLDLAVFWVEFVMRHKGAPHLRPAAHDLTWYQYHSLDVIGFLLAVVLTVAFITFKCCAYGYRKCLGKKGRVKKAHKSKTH

UGT1A4 = molecular target: T5, UGT1A4 (Homo sapiens, UniProt P22310); test: Inhibition of glucuronide formation in UGT1A4-over-expressing cell homogenates; type: biochemical; settings: 10 μM hecogenin
T5 sequence (P22310 29-534): T2 sequence (P22310 29-534 L48V) with V20L

[2] = tested on: Human liver microsomes (HLM); type: biochemical; settings: 10 μM hecogenin; 160 μM CLZ; HLM
[3] = substrate: CN1CCN(C2=Nc3cc(Cl)ccc3Nc3ccccc32)CC1; test: cells, lysate or membranes named; settings: other: substrate CLZ
[4] = substrate: Clc1ccc2c(c1)N=C(N1CCNCC1)c1ccccc1N2; test: cells, lysate or membranes named; settings: other: substrate dmCLZ

CN1CCN(C2=Nc3cc(Cl)ccc3Nc3ccccc32)CC1 [CLZ, Clozapine, reference compound]
detectable glucuronidation activity (screen) (UGT2B4): None | detectable glucuronidation activity (screen) (UGT1A7): None | detectable glucuronidation activity (screen) (UGT1A3): detectable levels of activity; also recorded: barely above the limits of detection | detectable glucuronidation activity (screen) (UGT2B10): detectable levels of activity; also recorded: barely above the limits of detection | administered dose being metabolized [1]: 97% | patients who fail to respond to CLZ treatment despite adequate dosing [1]: Approximately 30% | CLZ and dmCLZ glucuronides, share of all recovered metabolites in urine and bile ([1]; human subjects taking CLZ): 33–38% | plasma concentrations (inter-individual variability for a given dose of CLZ) ([1]; patients): 3 to 1507 ng/mL | detectable glucuronidation activity (screen) (UGT1A1): detectable levels of activity | detectable glucuronidation activity (screen) (UGT1A10): None | detectable glucuronidation activity (screen) (UGT1A9): None | detectable glucuronidation activity (screen) (UGT2B15): None | detectable glucuronidation activity (screen) (UGT2B7): None | detectable glucuronidation activity (screen) (UGT2B17): None | decrease in KM, CLZ-5-N-glucuronide formation (UGT1A4^24Pro/48Val; vs UGT1A4^24Thr/48Leu variant): 56% | decrease in KM, CLZ-5-N-glucuronide formation (UGT1A4^24Pro/48Val; vs wild-type UGT1A4^24Pro/48Leu): 58% | detectable glucuronidation activity (screen) (UGT1A6): None | detectable glucuronidation activity (screen) (UGT1A4^24Pro/48Leu): detectable levels of activity | decrease in Vmax, CLZ-5-N-glucuronide formation (UGT1A4^24Thr/48Leu): 21% | lower Vmax/KM, CLZ-5-N-glucuronide formation (UGT1A4^24Thr/48Leu): 20% | detectable glucuronidation activity (screen) (UGT2B11): None | detectable glucuronidation activity (screen) (UGT1A8): None

hecogenin
inhibition of CLZ-5-N-glucuronide formation (UGT1A4; 160 μM CLZ): 77% | inhibition of CLZ-N^+-glucuronide formation (UGT1A4; 160 μM CLZ): 82% | inhibition of dmCLZ-5-N-glucuronide formation (UGT1A4; 320 μM dmCLZ): 81% | inhibition of CLZ-5-N-glucuronide formation [2]: 89 ± 3% | inhibition of CLZ-N^+-glucuronide formation [2]: 46 ± 5%

B1: UGT1A1 (Homo sapiens) (protein)
chain: T1 sequence (P22309 26-533)
Km [3]: 53 ± 2^a,b μM | Vmax [3]: 0.00086 ± 2e-05 µmol/min/mg | Vmax/Km [3]: 17 ± 0.6 µL/min/mg

B2: UGT1A4^24Pro/48Leu (Homo sapiens) (protein)
chain: T2 sequence (P22310 29-534 L48V) with V20L
Km [4]: 379 ± 46 µM | Vmax [4]: 0.01 µmol/min/mg | Vmax/Km [4]: 28 µL/min/mg

B3: UGT1A4^24Thr/48Leu (Homo sapiens) (protein)
chain: MARGLQVPLPRLATGLLLLLSVQPWAESGKVLVVPTDGSPWLSMREALRELHARGHQAVVLTPEVNMHIKEEKFFTLTAYAVPWTQKEFDRVTLGYTQGFFETEHLLKRYSRSMAIMNNVSLALHRCCVELLHNEALIRHLNATSFDVVLTDPVNLCGAVLAKYLSIPAVFFWRYIPCDLDFKGTQCPNPSSYIPKLLTTNSDHMTFLQRVKNMLYPLALSYICHTFSAPYASLASELFQREVSVVDLVSYASVWLFRGDFVMDYPRPIMPNMVFIGGINCANGKPLSQEFEAYINASGEHGIVVFSLGSMVSEIPEKKAMAIADALGKIPQTVLWRYTGTRPSNLANNTILVKWLPQNDLLGHPMTRAFITHAGSHGVYESICNGVPMVMMPLFGDQMDNAKRMETKGAGVTLNVLEMTSEDLENALKAVINDKSYKENIMRLSSLHKDRPVEPLDLAVFWVEFVMRHKGAPHLRPAAHDLTWYQYHSLDVIGFLLAVVLTVAFITFKCCAYGYRKCLGKKGRVKKAHKSKTH
Km [3]: 167 ± 19^d μM and 459 ± 23^e μM | Km [4]: 440 ± 45^b μM | Vmax [4]: 0.0064 ± 0.0009 µmol/min/mg | Vmax/Km [4]: 15 ± 1.5 µL/min/mg

B4: UGT1A4^24Pro/48Val (Homo sapiens; L48V) (protein)
chain: T2 sequence (P22310 29-534 L48V)
Km [4]: 173 ± 22^e μM | Vmax [4]: 0.017 ± 0.0013 µmol/min/mg | Vmax/Km [4]: 96 ± 8 µL/min/mg
